Data published in US20230227466A1, “SUBSTITUTED THIENOPYRIMIDINES THAT INTERACT WITH THE RAS SUPERFAMILY FOR THE TREATMENT OF CANCERS, INFLAMMATORY DISEASES, RASOPATHIES, AND FIBROTIC DISEASE” (SHY Therapeutics, LLC, priority 2020, published 2023).

Assays:
[1] = tested on: ERK1/2 phosphorylation in Panc-1 cells; assay: Western ERK1/2 cell-based phosphorylation assay; set-up: species or system human; settings: at 10 μM, values in brackets < > are activation %, not inhibition
Procedure: Cell lines: Human tumor-derived pancreatic cancer cell line Panc-1 was purchased from American Type Culture Collection and grown in complete DMEM-High Glucose, supplemented with penicillin (100 U/mL), streptomycin (100 μg/mL), and 10% heat-inactivated FBS at 37° C. in a humidified incubator with 5% CO2.
(§1) Method: Cells were plated at 350000 cells/well density in a 12-well plate, allowed 3 hours to adhere to the plate, then starved in the appropriate medium in the presence of 0.5% FBS overnight. The small molecules to be tested were added to the cells in the final concentration of 10 μM in the presence of 0.3% DMSO for 6 hours incubation at 37° C. For IC50 value determination, serial dilutions of compounds were added to cells under the same conditions. Next, cells were stimulated with 1.5 ng/ml EGF for 15 minutes then cells were lysed with lysis buffer containing 1% Triton X-100, EDTA, and Halt™ Protease & Phosphatase Inhibitor Cocktail (Thermo Scientific). Protein concentration was assessed by BCA protein assay (Thermo Scientific). Phosphorylation level of ERK1/2 was determined by western blot.
(§2) Western blot protocol: Equal amounts of protein (15-50 μg) were separated by SDS-PAGE and transferred to nitrocellulose membranes (Invitrogen by Thermo Fisher Scientific). The membrane was stained with Ponceau S Stain (Boston BioProducts) to verify uniform protein loading. Membranes were blocked with 10% milk and phosphorylation levels of ERK1/2 were assessed by incubating overnight at 4° C. with anti-phospho-p44/42 (Thr202/Tyr204) antibody (Cell Signaling) followed by HRP-conjugated secondary antibody (Jackson Immunoresearch, West Grove, Pa.). Bands were incubated in Amersham ECL Prime Western Blotting Detection Reagent (GE Healthcare) and visualized using the ChemiDoc MP imaging system (Bio-Rad). Protocol for Western AKT cell-based phosphorylation assay

[2] = tested on: Akt phosphorylation in Panc-1 cells; assay: Western AKT cell-based phosphorylation assay; set-up: species or system human; settings: at 10 μM, values in brackets < > are activation %, not inhibition
Procedure: Human Tumor-Derived Pancreatic Cancer Cell Line Panc-1 was Purchased from
American Type Culture Collection and grown in complete DMEM-High Glucose supplemented with penicillin (100 U/mL), streptomycin (100 μg/mL), and 10% heat-inactivated FBS at 37° C. in a humidified incubator with 5% CO2.
as §1, with “C.” for “C. For IC50 value determination, serial dilutions of compounds were added to cells under the same conditions.”, “Akt” for “ERK1/2”
as §2, with “Akt” for “ERK1/2”, “anti-phospho-Akt (Ser473)” for “anti-phospho-p44/42 (Thr202/Tyr204)”, “(Bio-Rad).” for “(Bio-Rad). Protocol for Western AKT cell-based phosphorylation assay”

SMILES	% inh of ERK1/2 phosphorylation in PANC-1 [1]	% inh of AKT phosphorylation in PANC-1 [2]
CO[C@H]1CC[C@@H](Nc2nc(-c3nccn3C)nc3sc(-c4ccn(C(C)C)n4)c(C(F)(F)F)c23)C1 (racemic) [Compound 73, Rac-6-(1-isopropyl-1H-pyrazol-3-yl)-N-((1R,3S)-3-methoxycyclopentyl)-2-(1-methyl-1H-imidazol-2-yl)-5-(trifluoromethyl)thieno[2,3-d]pyrimidin-4-amine]	D (76-100% inhibition)	A (1-25% inhibition)
COCC1CCN(c2nc(-c3nccn3C)nc3sc(-c4ccn(C(C)C)n4)c(C(F)(F)F)c23)C1 (racemic) [Compound 74, Rac-6-(1-Isopropyl-1H-pyrazol-3-yl)-4-(3-(methoxymethyl)pyrrolidin-1-yl)-2-(1-methyl-1H-imidazol-2-yl)-5-(trifluoromethyl)thieno[2,3-d]pyrimidine]	D (76-100% inhibition)	0 (0% inhibition)
COC1CCCN(c2nc(-c3nccn3C)nc3sc(-c4ccn(C(C)C)n4)c(C(F)(F)F)c23)C1 (racemic) [Compound 75, Rac-6-(1-Isopropyl-1H-pyrazol-3-yl)-4-(3-methoxypiperidin-1-yl)-2-(1-methyl-1H-imidazol-2-yl)-5-(trifluoromethyl)thieno[2,3-d]pyrimidine]	D (76-100% inhibition)	0 (0% inhibition)
COCC1CCN(c2nc(-c3nccn3C)nc3sc(-c4ccn(C(C)C)n4)c(-c4ccccc4)c23)C1 (racemic) [Compound 76, Rac-6-(1-isopropyl-1H-pyrazol-3-yl)-4-(3-(methoxymethyl)pyrrolidin-1-yl)-2-(1-methyl-1H-imidazol-2-yl)-5-phenylthieno[2,3-d]pyrimidine]	D (76-100% inhibition)	0 (0% inhibition)
COC1CCCN(c2nc(-c3nccn3C)nc3sc(-c4ccn(C(C)C)n4)c(-c4ccccc4)c23)C1 (racemic) [Compound 77, Rac-6-(1-isopropyl-1H-pyrazol-3-yl)-4-(3-methoxypiperidin-1-yl)-2-(1-methyl-1H-imidazol-2-yl)-5-phenylthieno[2,3-d]pyrimidine]	B (26-50% inhibition)	<A>
CO[C@H]1CC[C@@H](Nc2nc(-c3nccn3C)nc3sc(-c4cc[nH]n4)c(-c4ccccc4)c23)C1 (racemic) [Example 1, Rac-N-((1R,3S)-3-methoxycyclopentyl)-2-(1-methyl-1H-imidazol-2-yl)-5-phenyl-6-(1H-pyrazol-3-yl)thieno[2,3-d]pyrimidin-4-amine]	0 (0% inhibition)	0 (0% inhibition)
CO[C@H]1CC[C@@H](Nc2nc(-c3nccn3C)nc3sc(-c4ccn(C(C)C)n4)c(-c4ccccc4)c23)C1 [Compound 5, 6-(1-Isopropyl-1H-pyrazol-3-yl)-N-((1R,3S)-3-methoxycyclopentyl)-2-(1-methyl-1H-imidazol-2-yl)-5-phenylthieno[2,3-d]pyrimidin-4-amine]	D (76-100% inhibition)	D (76-100% inhibition)
COCCn1ccnc1-c1nc(N[C@H]2C[C@@H](OC)C2)c2c(-c3ccccc3)c(-c3ccn(C)n3)sc2n1 [Compound 7, N-((1s,3s)-3-Methoxycyclobutyl)-2-(1-(2-methoxyethyl)-1H-imidazol-2-yl)-6-(1-methyl-1H-pyrazol-3-yl)-5-phenylthieno[2,3-d]pyrimidin-4-amine]	D (76-100% inhibition)	0 (0% inhibition)
COCCn1ccnc1-c1nc(N[C@H]2C[C@@H](OC)C2)c2ccsc2n1 [Compound 9, N-((1s,3s)-3-Methoxycyclobutyl)-2-(1-(2-methoxyethyl)-1H-imidazol-2-yl)thieno[2,3-d]pyrimidin-4-amine]	0 (0% inhibition)	0 (0% inhibition)
NC(=O)c1nc(O)c2scc(-c3ccccn3)c2n1 [Compound 18, 4-Hydroxy-7-(pyridin-2-yl)thieno[3,2-d]pyrimidine-2-carboxamide]	0 (0% inhibition)	0 (0% inhibition)
O=C(c1nc(O)c2scc(-c3ccccn3)c2n1)N1CCCC1 [Compound 19, (4-Hydroxy-7-(pyridin-2-yl)thieno[3,2-d]pyrimidin-2-yl)(pyrrolidin-1-yl)methanone]	0 (0% inhibition)	0 (0% inhibition)
CC(C)NC(=O)c1nc(O)c2scc(-c3ccccn3)c2n1 [Compound 20, 4-Hydroxy-N-isopropyl-7-(pyridin-2-yl)thieno[3,2-d]pyrimidine-2-carboxamide]	0 (0% inhibition)	0 (0% inhibition)
COCCNC(=O)c1nc(O)c2scc(-c3ccccn3)c2n1 [Compound 21, 4-Hydroxy-N-(2-methoxyethyl)-7-(pyridin-2-yl)thieno[3,2-d]pyrimidine-2-carboxamide]	0 (0% inhibition)	0 (0% inhibition)
O=C(c1nc(O)c2scc(-c3ccccn3)c2n1)N1CCOCC1 [Compound 22, (4-Hydroxy-7-(pyridin-2-yl)thieno[3,2-d]pyrimidin-2-yl)(morpholino)methanone]	0 (0% inhibition)	0 (0% inhibition)
O=C(Nc1ccccc1)c1nc(O)c2scc(-c3ccccn3)c2n1 [Compound 23, 4-Hydroxy-N-phenyl-7-(pyridin-2-yl)thieno[3,2-d]pyrimidine-2-carboxamide]	0 (0% inhibition)	0 (0% inhibition)
O=C(Nc1ccccn1)c1nc(O)c2scc(-c3ccccn3)c2n1 [Compound 24, 4-Hydroxy-N,7-di(pyridin-2-yl)thieno[3,2-d]pyrimidine-2-carboxamide]	0 (0% inhibition)	0 (0% inhibition)
Cc1sc2c(O)nc(-c3ccccn3)nc2c1-c1ccccn1 [Compound 26, 6-Methyl-2,7-di(pyridin-2-yl)thieno[3,2-d]pyrimidin-4-ol]	0 (0% inhibition)	0 (0% inhibition)
Cn1ccnc1-c1nc(O)c2scc(-c3ncccc3F)c2n1 [Compound 30, 7-(3-Fluoropyridin-2-yl)-2-(1-methyl-1H-imidazol-2-yl)thieno[3,2-d]pyrimidin-4-ol]	0 (0% inhibition)	0 (0% inhibition)
CO[C@@H]1CC[C@H](Nc2nc(-c3nccn3C)nc3sc(-c4ccn(C(C)C)n4)c(C)c23)C1 [Compound 31, 6-(1-Isopropyl-1H-pyrazol-3-yl)-N-((1S,3R)-3-methoxycyclopentyl)-5-methyl-2-(1-methyl-1H-imidazol-2-yl)thieno[2,3-d]pyrimidin-4-amine]	D (76-100% inhibition)	0 (0% inhibition)
CO[C@H]1CC[C@@H](Nc2nc(-c3nccn3C)nc3sc(-c4ccn(C(C)C)n4)c(C)c23)C1 [Compound 32, 6-(1-Isopropyl-1H-pyrazol-3-yl)-N-((1R,3S)-3-methoxycyclopentyl)-5-methyl-2-(1-methyl-1H-imidazol-2-yl)thieno[2,3-d]pyrimidin-4-amine]	D (76-100% inhibition)	0 (0% inhibition)
